Measured values: patent US8575091B1, “Amylin analogues and pharmaceutical compositions thereof” (Novo Nordisk A/S, priority 2012, dated 2013)
Numbered stars: 1 amine (or outer) side, 2 acyl side, 3 side chain; on linkers, the order of the positions; unused ones are H or OH. Bridge positions count the residues as written; N and C are the ends. Side chains are listed from the residue outwards. Peptide text beside a SMILES is read from it. * marks the point of attachment. C20 diacid = O=C(O)CCCCCCCCCCCCCCCCCCC(=O)*; γGlu = O=C(O)[C@H](CCC(=O)[*:2])N[*:1]; AEEA = NCCOCCOCC(=O)O

Experiments:
[1] = biological target: T1, human amylin receptor (amylin 3(a) receptor: human calcitonin receptor + RAMP-3) (Homo sapiens, UniProt O60896+P30988); assay: Assay (II)a functional assay, human amylin receptor (CRE luciferase, BHK cells); type: cell-based; conditions: for EC50: functional assay, human amylin receptor, read-out: hAmylin-R funct. EC50
T1 construct: expressed in transfected cells
T1 sequence (P30988 25-474): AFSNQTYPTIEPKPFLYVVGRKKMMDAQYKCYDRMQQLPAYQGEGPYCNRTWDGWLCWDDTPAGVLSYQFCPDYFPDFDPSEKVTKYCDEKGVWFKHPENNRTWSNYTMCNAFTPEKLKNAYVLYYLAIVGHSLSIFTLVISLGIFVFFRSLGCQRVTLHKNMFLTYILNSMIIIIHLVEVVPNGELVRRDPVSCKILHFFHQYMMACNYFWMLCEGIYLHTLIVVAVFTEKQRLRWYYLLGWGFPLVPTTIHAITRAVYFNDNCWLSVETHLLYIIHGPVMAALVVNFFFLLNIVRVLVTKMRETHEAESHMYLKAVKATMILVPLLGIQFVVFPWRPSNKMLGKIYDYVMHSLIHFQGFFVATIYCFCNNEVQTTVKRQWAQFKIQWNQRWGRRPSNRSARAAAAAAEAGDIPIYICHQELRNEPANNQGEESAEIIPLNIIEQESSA
T1 sequence (O60896 24-148 partner): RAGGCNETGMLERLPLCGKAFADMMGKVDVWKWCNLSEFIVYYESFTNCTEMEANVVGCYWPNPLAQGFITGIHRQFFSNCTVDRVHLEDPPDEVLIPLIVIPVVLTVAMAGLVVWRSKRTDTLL

[2] = biological target: T2, human calcitonin receptor (Homo sapiens, UniProt P30988); assay: Assay (II)a functional assay, human calcitonin receptor (CRE luciferase, BHK cells);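 further: luminescence from a CRE-driven luciferase reporter, read by single photon counting after cells were exposed to test samples for 3 h at 37 °C under 5% CO2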; type: cell-based; conditions: read-out: hCTR funct. EC50
T2 construct: expressed in transfected cells
T2 sequence (P30988 25-474): T1 sequence (P30988 25-474)

[3] = biological target: T3, human amylin receptor (Homo sapiens, UniProt O60896+P30988); assay: Assay (V) binding to the human amylin receptor (SPA, 125I-rat amylin); conditions: for IC50: human amylin receptor membranes, SPA, read-out: hAmylin-R bind IC50
T3 construct: expressed in transfected cells
T3 sequence (P30988 25-474): T1 sequence (P30988 25-474)
T3 sequence (O60896 24-148 partner): T1 sequence (O60896 24-148 partner)
Outline: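 SPA competition binding on membranes from Amylin 3(a)/CRE-luc cells, 35 ng/μL membranes with 0.05 mg/well beads. Buffer 50 mM Hepes pH 7.4, 1 mM CaCl2, 5 mM MgCl2, 0.1% OA, 0.02% Tween20. IC50 from one-site competition fit as affinity measure.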

[4] = biological target: T2, human calcitonin receptor; assay: Assay (VII) binding to the human calcitonin receptor (SPA, 125I-Calcitonin); conditions: read-out: hCTR bind IC50;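 further: cell membranes coupled to SPA beads, competitive displacement read by scintillation counting, IC50 derived from a one-site competition fit as a measure of receptor affinity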

| EC50 [1] [nM] | EC50 [2] [nM] | IC50 [3] [nM] | IC50 [4] [nM] | Ratio hCT/hAmylin funct. ([1]; Table 6, human functional selectivity (hCTR EC50 / hAmylin-R EC50)) | Ratio hCT/hAmylin binding ([3]; human binding ratio, included for comparison) | Compound |
| --- | --- | --- | --- | --- | --- | --- |
| 0.054 | 0.932 | 0.088 | 5.66 | – | – | CC[C@H](C)[C@H](NC(=O)[C@H](C)NC(=O)CNC(=O)[C@H](Cc1ccccc1)NC(=O)[C@H](CC(N)=O)NC(=O)[C@@H]1CCCN1C(=O)[C@H](CO)NC(=O)[C@H](CO)NC(=O)[C@H](Cc1c[nH]cn1)NC(=O)[C@H](CCCNC(=N)N)NC(=O)[C@H](CC(C)C)NC(=O)[C@H](Cc1ccccc1)NC(=O)[C@H](Cc1c[nH]cn1)NC(=O)[C@H](C)NC(=O)[C@H](CC(C)C)NC(=O)[C@H](CCCNC(=N)N)NC(=O)[C@H](CCC(N)=O)NC(=O)[C@@H](NC(=O)[C@H](C)NC(=O)[C@@H]1CSSC[C@H](NC(=O)[C@@H](N)CCCCNC(=O)COCCOCCNC(=O)CC[C@H](NC(=O)CCCCCCCCCCCCCCCCCCC(=O)O)C(=O)O)C(=O)N[C@@H](CC(N)=O)C(=O)N[C@@H]([C@@H](C)O)C(=O)N[C@@H](C)C(=O)N[C@@H]([C@@H](C)O)C(=O)N1)[C@@H](C)O)C(=O)N1CCC[C@H]1C(=O)N[C@@H](CO)C(=O)N[C@@H](CO)C(=O)N[C@H](C(=O)N[C@@H](CC(N)=O)C(=O)N[C@H](C(=O)NCC(=O)N1CCC[C@H]1C(=O)N[C@@H](CC(N)=O)C(=O)N[C@H](C(=O)N[C@@H](Cc1ccc(O)cc1)C(N)=O)[C@@H](C)O)C(C)C)[C@@H](C)O [Example 68] (H-K([AEEA-γGlu-C20 diacid])CNTATCATQRLAHFLRHSSPNFGAIPSSTNVGPNTY-NH2; disulfide 2-7) |
| 0.04 | 1.48 | 0.119 | 12 | – | – | CC[C@H](C)[C@H](NC(=O)[C@H](C)NC(=O)CNC(=O)[C@H](Cc1ccccc1)NC(=O)[C@H](CC(N)=O)NC(=O)[C@@H]1CCCN1C(=O)[C@H](CO)NC(=O)[C@H](CO)NC(=O)[C@H](Cc1c[nH]cn1)NC(=O)[C@H](CCCNC(=N)N)NC(=O)[C@H](CC(C)C)NC(=O)[C@H](Cc1ccccc1)NC(=O)[C@H](CC(N)=O)NC(=O)[C@H](C)NC(=O)[C@H](CC(C)C)NC(=O)[C@H](CCCNC(=N)N)NC(=O)[C@H](CCC(N)=O)NC(=O)[C@@H](NC(=O)[C@H](C)NC(=O)[C@@H]1CSSC[C@H](NC(=O)[C@@H](N)CCCCNC(=O)COCCOCCNC(=O)CCCCCCCCCCCCCCCCCCC(=O)O)C(=O)N[C@@H](CC(N)=O)C(=O)N[C@@H]([C@@H](C)O)C(=O)N[C@@H](C)C(=O)N[C@@H]([C@@H](C)O)C(=O)N1)[C@@H](C)O)C(=O)N1CCC[C@H]1C(=O)N[C@@H](CO)C(=O)N[C@@H](CO)C(=O)N[C@H](C(=O)N[C@@H](CC(N)=O)C(=O)N[C@H](C(=O)NCC(=O)N[C@@H](Cc1c[nH]cn1)C(=O)N[C@@H](CC(N)=O)C(=O)N[C@H](C(=O)N[C@@H](Cc1ccc(O)cc1)C(N)=O)[C@@H](C)O)C(C)C)[C@@H](C)O [Example 91] |
| 0.132 | 0.102 | 0.533 | 0.226 | 0.8 | 0.4 | CC[C@H](C)[C@H](NC(=O)[C@H](C)NC(=O)CNC(=O)[C@H](Cc1ccccc1)NC(=O)[C@H](CC(N)=O)NC(=O)[C@@H]1CCCN1C(=O)[C@H](CO)NC(=O)[C@H](CO)NC(=O)[C@H](Cc1c[nH]cn1)NC(=O)[C@H](CCCNC(=N)N)NC(=O)[C@H](CC(C)C)NC(=O)[C@H](Cc1ccccc1)NC(=O)[C@H](CCC(=O)O)NC(=O)[C@H](C)NC(=O)[C@H](CC(C)C)NC(=O)[C@H](CCCNC(=N)N)NC(=O)[C@H](CCC(N)=O)NC(=O)[C@@H](NC(=O)[C@H](C)NC(=O)[C@@H]1CSSC[C@H](NC(=O)[C@@H](N)CCCCNC(=O)CC[C@H](NC(=O)CC[C@H](NC(=O)CCCCCCCCCCCCCCCCCCC(=O)O)C(=O)O)C(=O)O)C(=O)N[C@@H](CC(N)=O)C(=O)N[C@@H]([C@@H](C)O)C(=O)N[C@@H](C)C(=O)N[C@@H]([C@@H](C)O)C(=O)N1)[C@@H](C)O)C(=O)N1CCC[C@H]1C(=O)N[C@@H](CO)C(=O)N[C@@H](CO)C(=O)N[C@H](C(=O)N[C@@H](CC(N)=O)C(=O)N[C@H](C(=O)NCC(=O)N1CCC[C@H]1C(=O)N[C@@H](CCC(=O)O)C(=O)N[C@H](C(=O)N1CCC[C@H]1C(N)=O)[C@@H](C)O)C(C)C)[C@@H](C)O [Example 125] (H-K([γGlu-γGlu-C20 diacid])CNTATCATQRLAEFLRHSSPNFGAIPSSTNVGPETP-NH2; disulfide 2-7) |
